Assay results published in the NIST ThermoML archive (doi:10.1021/je200124h).
Numbers after ± are expanded uncertainties.

Experiments:
[1] = wn = mass fraction of the nth substance listed; conditions: for surface tension liquid-gas: Ring tensiometer; for viscosity / mass density: Liquid; for mass density: Pycnometric method
[2] = for surface tension liquid-gas: Ring tensiometer; for viscosity / mass density: 101.33 kPa, Liquid; for viscosity: Capillary tube (Ostwald / Ubbelohde) method; for mass density: Pycnometric method

CC(O)CNCC(C)O (configuration not stated) [N-(2-hydroxypropyl)-2-hydroxy-1-propanamine] + O
surface tension liquid-gas ([1]; 303.15 K, w1 = 0.3873): 45.3 ± 0.7 mN/m
viscosity ([1]; 303.15 K, 101 kPa, w1 = 0.3873): 5.42 ± 0.13 mPa·s
mass density ([1]; 303.15 K, 101.3 kPa, w1 = 0.3873): 1016 ± 1.6 kg/m3
surface tension liquid-gas ([1]; 313.15 K, w1 = 0.3873): 44.4 ± 0.7 mN/m
viscosity ([1]; 313.15 K, 101 kPa, w1 = 0.3873): 3.74 ± 0.1 mPa·s
mass density ([1]; 313.15 K, 101.3 kPa, w1 = 0.3873): 1012 ± 1.6 kg/m3
surface tension liquid-gas ([1]; 323.15 K, w1 = 0.3873): 43.2 ± 0.8 mN/m
viscosity ([1]; 323.15 K, 101 kPa, w1 = 0.3873): 2.56 ± 0.08 mPa·s
mass density ([1]; 323.15 K, 101.3 kPa, w1 = 0.3873): 1006 ± 1.6 kg/m3
surface tension liquid-gas ([1]; 333.15 K, w1 = 0.3873): 42.1 ± 0.6 mN/m
viscosity ([1]; 333.15 K, 101 kPa, w1 = 0.3873): 1.88 ± 0.082 mPa·s
mass density ([1]; 333.15 K, 101.3 kPa, w1 = 0.3873): 1000 ± 1.9 kg/m3
surface tension liquid-gas ([1]; 343.15 K, w1 = 0.3873): 40.5 ± 0.6 mN/m
viscosity ([1]; 343.15 K, 101 kPa, w1 = 0.3873): 1.42 ± 0.037 mPa·s
mass density ([1]; 343.15 K, 101.3 kPa, w1 = 0.3873): 994.5 ± 1.6 kg/m3

C1CNCCN1 [piperazine] + O
surface tension liquid-gas ([1]; 303.15 K, w1 = 0.0516): 69.56 ± 0.95 mN/m
mass density ([1]; 303.15 K, 101 kPa, w1 = 0.0516): 998.34 ± 1.5 kg/m3
viscosity ([1]; 303.15 K, 101 kPa, w1 = 0.0516): 0.959 ± 0.025 mPa·s
surface tension liquid-gas ([1]; 313.15 K, w1 = 0.0516): 67.98 ± 0.93 mN/m
mass density ([1]; 313.15 K, 101 kPa, w1 = 0.0516): 993.9 ± 1.5 kg/m3
viscosity ([1]; 313.15 K, 101 kPa, w1 = 0.0516): 0.775 ± 0.021 mPa·s
surface tension liquid-gas ([1]; 323.15 K, w1 = 0.0516): 66.49 ± 0.91 mN/m
mass density ([1]; 323.15 K, 101 kPa, w1 = 0.0516): 989.79 ± 1.5 kg/m3
viscosity ([1]; 323.15 K, 101 kPa, w1 = 0.0516): 0.641 ± 0.018 mPa·s
surface tension liquid-gas ([1]; 333.15 K, w1 = 0.0516): 65.17 ± 0.89 mN/m
mass density ([1]; 333.15 K, 101 kPa, w1 = 0.0516): 985.1 ± 1.5 kg/m3
viscosity ([1]; 333.15 K, 101 kPa, w1 = 0.0516): 0.542 ± 0.015 mPa·s

O=S1(=O)CCCC1 [sulfolane]
surface tension liquid-gas ([2]; 303.15 K): 47.95 ± 0.71 mN/m
viscosity ([2]; 303.15 K): 10.18 ± 0.25 mPa·s
mass density ([2]; 303.15 K): 1262.3 ± 2 kg/m3
surface tension liquid-gas ([2]; 313.15 K): 47.22 ± 0.7 mN/m
viscosity ([2]; 313.15 K): 7.85 ± 0.2 mPa·s
mass density ([2]; 313.15 K): 1254 ± 2 kg/m3
surface tension liquid-gas ([2]; 323.15 K): 46.61 ± 0.69 mN/m
viscosity ([2]; 323.15 K): 6.15 ± 0.16 mPa·s
mass density ([2]; 323.15 K): 1245.7 ± 2 kg/m3
surface tension liquid-gas ([2]; 333.15 K): 45.74 ± 0.68 mN/m
viscosity ([2]; 333.15 K): 4.4 ± 0.11 mPa·s
mass density ([2]; 333.15 K): 1236.5 ± 2 kg/m3
surface tension liquid-gas ([2]; 343.15 K): 45.16 ± 0.67 mN/m
viscosity ([2]; 343.15 K): 3.57 ± 0.09 mPa·s
mass density ([2]; 343.15 K): 1229 ± 2 kg/m3

O=S1(=O)CCCC1 [sulfolane] + O
mass density ([1]; 303.15 K, 101 kPa, w1 = 0.0346): 1003 ± 1.5 kg/m3
mass density ([1]; 303.15 K, 101 kPa, w1 = 0.0487): 1007 ± 1.5 kg/m3
mass density ([1]; 303.15 K, 101 kPa, w1 = 0.0721): 1012 ± 1.6 kg/m3
mass density ([1]; 303.15 K, 101 kPa, w1 = 0.1022): 1020 ± 1.6 kg/m3
mass density ([1]; 303.15 K, 101 kPa, w1 = 0.1635): 1038 ± 12 kg/m3
viscosity ([1]; 303.15 K, 101 kPa, w1 = 0.0346): 0.84 ± 0.023 mPa·s
viscosity ([1]; 303.15 K, 101 kPa, w1 = 0.0487): 0.85 ± 0.025 mPa·s
viscosity ([1]; 303.15 K, 101 kPa, w1 = 0.0721): 0.88 ± 0.023 mPa·s
viscosity ([1]; 303.15 K, 101 kPa, w1 = 0.1022): 0.92 ± 0.024 mPa·s
viscosity ([1]; 303.15 K, 101 kPa, w1 = 0.1635): 1.02 ± 0.027 mPa·s
mass density ([1]; 313.15 K, 101 kPa, w1 = 0.0346): 999.7 ± 4.6 kg/m3
mass density ([1]; 313.15 K, 101 kPa, w1 = 0.0487): 1003 ± 1.5 kg/m3
mass density ([1]; 313.15 K, 101 kPa, w1 = 0.0721): 1007 ± 1.5 kg/m3
mass density ([1]; 313.15 K, 101 kPa, w1 = 0.1022): 1016 ± 1.6 kg/m3
mass density ([1]; 313.15 K, 101 kPa, w1 = 0.1635): 1032 ± 1.6 kg/m3
viscosity ([1]; 313.15 K, 101 kPa, w1 = 0.0346): 0.69 ± 0.019 mPa·s
viscosity ([1]; 313.15 K, 101 kPa, w1 = 0.0487): 0.7 ± 0.023 mPa·s
viscosity ([1]; 313.15 K, 101 kPa, w1 = 0.0721): 0.73 ± 0.02 mPa·s
viscosity ([1]; 313.15 K, 101 kPa, w1 = 0.1022): 0.76 ± 0.021 mPa·s
viscosity ([1]; 313.15 K, 101 kPa, w1 = 0.1635): 0.84 ± 0.023 mPa·s
mass density ([1]; 323.15 K, 101 kPa, w1 = 0.0346): 995.2 ± 3.4 kg/m3
mass density ([1]; 323.15 K, 101 kPa, w1 = 0.0487): 998.2 ± 1.5 kg/m3
mass density ([1]; 323.15 K, 101 kPa, w1 = 0.0721): 1003 ± 1.5 kg/m3
mass density ([1]; 323.15 K, 101 kPa, w1 = 0.1022): 1010 ± 1.6 kg/m3
mass density ([1]; 323.15 K, 101 kPa, w1 = 0.1635): 1026 ± 1.6 kg/m3
viscosity ([1]; 323.15 K, 101 kPa, w1 = 0.0346): 0.58 ± 0.016 mPa·s
viscosity ([1]; 323.15 K, 101 kPa, w1 = 0.0487): 0.59 ± 0.023 mPa·s
viscosity ([1]; 323.15 K, 101 kPa, w1 = 0.0721): 0.61 ± 0.017 mPa·s
viscosity ([1]; 323.15 K, 101 kPa, w1 = 0.1022): 0.64 ± 0.018 mPa·s
viscosity ([1]; 323.15 K, 101 kPa, w1 = 0.1635): 0.71 ± 0.019 mPa·s
mass density ([1]; 333.15 K, 101 kPa, w1 = 0.0346): 990.1 ± 3.8 kg/m3
mass density ([1]; 333.15 K, 101 kPa, w1 = 0.0487): 993 ± 1.6 kg/m3
mass density ([1]; 333.15 K, 101 kPa, w1 = 0.0721): 998.9 ± 1.6 kg/m3
mass density ([1]; 333.15 K, 101 kPa, w1 = 0.1022): 1005 ± 3.6 kg/m3
mass density ([1]; 333.15 K, 101 kPa, w1 = 0.1635): 1020 ± 1.7 kg/m3
viscosity ([1]; 333.15 K, 101 kPa, w1 = 0.0346): 0.49 ± 0.014 mPa·s
viscosity ([1]; 333.15 K, 101 kPa, w1 = 0.0487): 0.5 ± 0.029 mPa·s
viscosity ([1]; 333.15 K, 101 kPa, w1 = 0.0721): 0.52 ± 0.015 mPa·s
viscosity ([1]; 333.15 K, 101 kPa, w1 = 0.1022): 0.55 ± 0.016 mPa·s
viscosity ([1]; 333.15 K, 101 kPa, w1 = 0.1635): 0.61 ± 0.017 mPa·s
mass density ([1]; 343.15 K, 101 kPa, w1 = 0.0346): 984.3 ± 2.5 kg/m3
mass density ([1]; 343.15 K, 101 kPa, w1 = 0.0487): 987 ± 7 kg/m3
mass density ([1]; 343.15 K, 101 kPa, w1 = 0.0721): 991.7 ± 2.1 kg/m3
mass density ([1]; 343.15 K, 101 kPa, w1 = 0.1022): 998 ± 2.3 kg/m3
mass density ([1]; 343.15 K, 101 kPa, w1 = 0.1635): 1012 ± 2.5 kg/m3
viscosity ([1]; 343.15 K, 101 kPa, w1 = 0.0346): 0.43 ± 0.013 mPa·s
viscosity ([1]; 343.15 K, 101 kPa, w1 = 0.0487): 0.44 ± 0.013 mPa·s
viscosity ([1]; 343.15 K, 101 kPa, w1 = 0.0721): 0.45 ± 0.013 mPa·s
viscosity ([1]; 343.15 K, 101 kPa, w1 = 0.1022): 0.48 ± 0.014 mPa·s
viscosity ([1]; 343.15 K, 101 kPa, w1 = 0.1635): 0.54 ± 0.015 mPa·s

OCCN(CCO)CCO [triethanolamine]
surface tension liquid-gas ([2]; 303.15 K): 45.13 ± 0.67 mN/m
viscosity ([2]; 303.15 K): 405.6 ± 17 mPa·s
mass density ([2]; 303.15 K): 1119.6 ± 2.6 kg/m3
surface tension liquid-gas ([2]; 313.15 K): 43.54 ± 0.65 mN/m
viscosity ([2]; 313.15 K): 208.6 ± 7.4 mPa·s
mass density ([2]; 313.15 K): 1113.8 ± 2.6 kg/m3
surface tension liquid-gas ([2]; 323.15 K): 41.85 ± 0.63 mN/m
viscosity ([2]; 323.15 K): 116 ± 3.5 mPa·s
mass density ([2]; 323.15 K): 1107.9 ± 2.6 kg/m3
surface tension liquid-gas ([2]; 333.15 K): 40.04 ± 0.6 mN/m
viscosity ([2]; 333.15 K): 64.55 ± 1.8 mPa·s
mass density ([2]; 333.15 K): 1102 ± 2.6 kg/m3
surface tension liquid-gas ([2]; 343.15 K): 38.11 ± 0.57 mN/m
viscosity ([2]; 343.15 K): 38.79 ± 1.1 mPa·s
mass density ([2]; 343.15 K): 1096.2 ± 2.6 kg/m3

OCCN(CCO)CCO [triethanolamine] + O
surface tension liquid-gas ([1]; 303.15 K, w1 = 0.4227): 54.5 ± 0.89 mN/m
viscosity ([1]; 303.15 K, 101 kPa, w1 = 0.4227): 4.13 ± 0.1 mPa·s
mass density ([1]; 303.15 K, 101.3 kPa, w1 = 0.4227): 1052 ± 1.6 kg/m3
surface tension liquid-gas ([1]; 313.15 K, w1 = 0.4227): 53.8 ± 0.75 mN/m
viscosity ([1]; 313.15 K, 101 kPa, w1 = 0.4227): 2.91 ± 0.075 mPa·s
mass density ([1]; 313.15 K, 101.3 kPa, w1 = 0.4227): 1048 ± 1.6 kg/m3
surface tension liquid-gas ([1]; 323.15 K, w1 = 0.4227): 53 ± 0.74 mN/m
viscosity ([1]; 323.15 K, 101 kPa, w1 = 0.4227): 2.16 ± 0.055 mPa·s
mass density ([1]; 323.15 K, 101.3 kPa, w1 = 0.4227): 1043 ± 1.6 kg/m3
surface tension liquid-gas ([1]; 333.15 K, w1 = 0.4227): 52.3 ± 0.88 mN/m
viscosity ([1]; 333.15 K, 101 kPa, w1 = 0.4227): 1.67 ± 0.043 mPa·s
mass density ([1]; 333.15 K, 101.3 kPa, w1 = 0.4227): 1037 ± 2.6 kg/m3
surface tension liquid-gas ([1]; 343.15 K, w1 = 0.4227): 51.4 ± 0.72 mN/m
viscosity ([1]; 343.15 K, 101 kPa, w1 = 0.4227): 1.36 ± 0.035 mPa·s
mass density ([1]; 343.15 K, 101.3 kPa, w1 = 0.4227): 1032 ± 1.6 kg/m3
